Assay results published in patent US20230111310A1, “CARBOXYLIC ACID DERIVATIVE-SUBSTITUTED IMINO ARYL COMPOUND, PREPARATION METHOD THEREFOR, HERBICIDAL COMPOSITION AND USE THEREOF” (Qingdao Kingagroot Chemical Compound Co., Ltd., priority 2020, published 2023).

Columns and labels:
Assay in all cases: Weeding effect in post-emergence stage
Type in all cases: in vivo
Abutilon theophrasti = conditions: for Weeding effect in post-emergence stage, Abutilon theophrasti (level): fresh weight control rate level; for Weeding effect in post-emergence stage, Abutilon theophrasti: level of fresh weight growth control rate
Outline: (§1)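 Read-out is growth control rate, counted 3 weeks post-spray and averaged over three repeats. Greenhouse plants at the 2-3 leaf stage received spray-tower application at 500, 250, 125, 60, 30, 15 or 7.5 g/ha, with methyl oleate EC (1.5 liter/ha) and Tween 80 added.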

Digitaria sanguinalis = conditions: for Weeding effect in post-emergence stage, Digitaria sanguinalis (level): fresh weight control rate level; for Weeding effect in post-emergence stage, Digitaria sanguinalis: level of fresh weight growth control rate
Outline: as §1

Setaria viridis = conditions: for Weeding effect in post-emergence stage, Setaria viridis (level): fresh weight control rate level; for Weeding effect in post-emergence stage, Setaria viridis: level of fresh weight growth control rate
Outline: as §1

Alopecurus japonicus = conditions: for Weeding effect in post-emergence stage, Alopecurus japonicus (level): fresh weight control rate level; for Weeding effect in post-emergence stage, Alopecurus japonicus: level of fresh weight growth control rate
Outline: as §1

Eleusine indica = conditions: for Weeding effect in post-emergence stage, Eleusine indica (level): fresh weight control rate level; for Weeding effect in post-emergence stage, Eleusine indica: level of fresh weight growth control rate
Outline: as §1

Echinochloa crusgalli = conditions: for Weeding effect in post-emergence stage, Echinochloa crusgalli (level): fresh weight control rate level; for Weeding effect in post-emergence stage, Echinochloa crusgalli: level of fresh weight growth control rate
Outline: as §1

CC(=NC(=O)C(C)ON=Cc1cc(-n2c(=O)cc(C(F)(F)F)n(C)c2=O)c(F)cc1Cl)c1ccccc1 (stereo not drawn) [Compound 453]
Weeding effect in post-emergence stage, Abutilon theophrasti (level) (Abutilon theophrasti; Dose 30 g/ha): 5 (Level 5: growth control rate is above 85%) | Weeding effect in post-emergence stage, Digitaria sanguinalis (level) (Digitaria sanguinalis; Dose 30 g/ha): 5 (Level 5: growth control rate is above 85%) | Weeding effect in post-emergence stage, Setaria viridis (level) (Setaria viridis; Dose 30 g/ha): 5 (Level 5: growth control rate is above 85%) | Weeding effect in post-emergence stage, Alopecurus japonicus (level) (Alopecurus japonicus; Dose 30 g/ha): 5 (Level 5: growth control rate is above 85%) | Weeding effect in post-emergence stage, Eleusine indica (level) (Eleusine indica; Dose 30 g/ha): 5 (Level 5: growth control rate is above 85%) | Weeding effect in post-emergence stage, Echinochloa crusgalli (level) (Echinochloa crusgalli; Dose 30 g/ha): 5 (Level 5: growth control rate is above 85%)

COCC(O/N=C/c1cc(-n2c(=O)n(C)c(=S)n(C)c2=O)c(F)cc1Cl)C(=O)OC (stereo not drawn) [Compound 80]
Weeding effect in post-emergence stage, Abutilon theophrasti (Abutilon theophrasti; Dose 15 g/ha): 5 (Level 5: growth control rate is above 85%) | Weeding effect in post-emergence stage, Digitaria sanguinalis (Digitaria sanguinalis; Dose 15 g/ha): 5 (Level 5: growth control rate is above 85%) | Weeding effect in post-emergence stage, Setaria viridis (Setaria viridis; Dose 15 g/ha): 5 (Level 5: growth control rate is above 85%) | Weeding effect in post-emergence stage, Alopecurus japonicus (Alopecurus japonicus; Dose 15 g/ha): 5 (Level 5: growth control rate is above 85%) | Weeding effect in post-emergence stage, Eleusine indica (Eleusine indica; Dose 15 g/ha): 5 (Level 5: growth control rate is above 85%) | Weeding effect in post-emergence stage, Echinochloa crusgalli (Echinochloa crusgalli; Dose 15 g/ha): 5 (Level 5: growth control rate is above 85%)

CC(O/N=C/c1cc(-n2c(=O)cc(C(F)(F)F)n(C)c2=O)c(F)cc1Cl)C(=O)OCc1ccc(Cl)nc1 (stereo not drawn) [Compound 495]
Weeding effect in post-emergence stage, Abutilon theophrasti (level) (Abutilon theophrasti; Dose 15 g/ha): 5 (Level 5: growth control rate is above 85%) | Weeding effect in post-emergence stage, Digitaria sanguinalis (level) (Digitaria sanguinalis; Dose 15 g/ha): 5 (Level 5: growth control rate is above 85%) | Weeding effect in post-emergence stage, Setaria viridis (level) (Setaria viridis; Dose 15 g/ha): 5 (Level 5: growth control rate is above 85%) | Weeding effect in post-emergence stage, Alopecurus japonicus (level) (Alopecurus japonicus; Dose 15 g/ha): 5 (Level 5: growth control rate is above 85%) | Weeding effect in post-emergence stage, Eleusine indica (level) (Eleusine indica; Dose 15 g/ha): 5 (Level 5: growth control rate is above 85%) | Weeding effect in post-emergence stage, Echinochloa crusgalli (level) (Echinochloa crusgalli; Dose 15 g/ha): 5 (Level 5: growth control rate is above 85%)

CCOC(=O)C(OC)O/N=C/c1cc(-n2c(=O)cc(C(F)(F)F)n(C)c2=O)c(F)cc1Cl (stereo not drawn) [Compound 322]
Weeding effect in post-emergence stage, Abutilon theophrasti (Abutilon theophrasti; Dose 120 g/ha): 5 (Level 5: growth control rate is above 85%) | Weeding effect in post-emergence stage, Digitaria sanguinalis (Digitaria sanguinalis; Dose 120 g/ha): 5 (Level 5: growth control rate is above 85%) | Weeding effect in post-emergence stage, Setaria viridis (Setaria viridis; Dose 120 g/ha): 5 (Level 5: growth control rate is above 85%) | Weeding effect in post-emergence stage, Alopecurus japonicus (Alopecurus japonicus; Dose 120 g/ha): 5 (Level 5: growth control rate is above 85%) | Weeding effect in post-emergence stage, Eleusine indica (Eleusine indica; Dose 120 g/ha): 5 (Level 5: growth control rate is above 85%) | Weeding effect in post-emergence stage, Echinochloa crusgalli (Echinochloa crusgalli; Dose 120 g/ha): 5 (Level 5: growth control rate is above 85%)

COC(=O)C(C)O/N=C/c1cc(-n2c(=S)cc(C(F)(F)F)n(C)c2=O)c(F)cc1Br (racemic) [Compound 388]
Weeding effect in post-emergence stage, Abutilon theophrasti (level) (Abutilon theophrasti; Dose 15 g/ha): 5 (Level 5: growth control rate is above 85%) | Weeding effect in post-emergence stage, Digitaria sanguinalis (level) (Digitaria sanguinalis; Dose 15 g/ha): 5 (Level 5: growth control rate is above 85%) | Weeding effect in post-emergence stage, Setaria viridis (level) (Setaria viridis; Dose 15 g/ha): 5 (Level 5: growth control rate is above 85%) | Weeding effect in post-emergence stage, Alopecurus japonicus (level) (Alopecurus japonicus; Dose 15 g/ha): 4 (Level 4: growth control rate is greater than or equal to 60% and less than 85%) | Weeding effect in post-emergence stage, Eleusine indica (level) (Eleusine indica; Dose 15 g/ha): 5 (Level 5: growth control rate is above 85%) | Weeding effect in post-emergence stage, Echinochloa crusgalli (level) (Echinochloa crusgalli; Dose 15 g/ha): 5 (Level 5: growth control rate is above 85%)

C[C@@H](O/N=C/c1cc(-n2c(=O)n(C)c(=S)n(C)c2=O)c(F)cc1Cl)C(=O)OCc1ccccc1 [42(R)]
Weeding effect in post-emergence stage, Abutilon theophrasti (Abutilon theophrasti; Dose 15 g/ha): 5 (Level 5: growth control rate is above 85%) | Weeding effect in post-emergence stage, Digitaria sanguinalis (Digitaria sanguinalis; Dose 15 g/ha): 5 (Level 5: growth control rate is above 85%) | Weeding effect in post-emergence stage, Setaria viridis (Setaria viridis; Dose 15 g/ha): 5 (Level 5: growth control rate is above 85%) | Weeding effect in post-emergence stage, Alopecurus japonicus (Alopecurus japonicus; Dose 15 g/ha): 4 (Level 4: growth control rate is greater than or equal to 60% and less than 85%) | Weeding effect in post-emergence stage, Eleusine indica (Eleusine indica; Dose 15 g/ha): 5 (Level 5: growth control rate is above 85%) | Weeding effect in post-emergence stage, Echinochloa crusgalli (Echinochloa crusgalli; Dose 15 g/ha): 5 (Level 5: growth control rate is above 85%)

COC(=O)[C@@H](C)O/N=C/c1cc(-n2c(=O)cc(C(F)(F)F)n(C)c2=O)c(F)cc1C#N [344(R)]
Weeding effect in post-emergence stage, Abutilon theophrasti (Abutilon theophrasti; Dose 15 g/ha): 5 (Level 5: growth control rate is above 85%) | Weeding effect in post-emergence stage, Digitaria sanguinalis (Digitaria sanguinalis; Dose 15 g/ha): 5 (Level 5: growth control rate is above 85%) | Weeding effect in post-emergence stage, Setaria viridis (Setaria viridis; Dose 15 g/ha): 5 (Level 5: growth control rate is above 85%) | Weeding effect in post-emergence stage, Alopecurus japonicus (Alopecurus japonicus; Dose 15 g/ha): 5 (Level 5: growth control rate is above 85%) | Weeding effect in post-emergence stage, Eleusine indica (Eleusine indica; Dose 15 g/ha): 5 (Level 5: growth control rate is above 85%) | Weeding effect in post-emergence stage, Echinochloa crusgalli (Echinochloa crusgalli; Dose 15 g/ha): 5 (Level 5: growth control rate is above 85%)

CCOC(=O)[C@H](OC)O/N=C/c1cc(-n2c(=O)cc(C(F)(F)F)n(C)c2=O)c(F)cc1Cl [322(R)]
Weeding effect in post-emergence stage, Abutilon theophrasti (Abutilon theophrasti; Dose 120 g/ha): 5 (Level 5: growth control rate is above 85%) | Weeding effect in post-emergence stage, Digitaria sanguinalis (Digitaria sanguinalis; Dose 120 g/ha): 5 (Level 5: growth control rate is above 85%) | Weeding effect in post-emergence stage, Setaria viridis (Setaria viridis; Dose 120 g/ha): 5 (Level 5: growth control rate is above 85%) | Weeding effect in post-emergence stage, Alopecurus japonicus (Alopecurus japonicus; Dose 120 g/ha): 5 (Level 5: growth control rate is above 85%) | Weeding effect in post-emergence stage, Eleusine indica (Eleusine indica; Dose 120 g/ha): 5 (Level 5: growth control rate is above 85%) | Weeding effect in post-emergence stage, Echinochloa crusgalli (Echinochloa crusgalli; Dose 120 g/ha): 5 (Level 5: growth control rate is above 85%)
